Results: patent US3957811A, “Process for 3-(1-[arylmethyl]tetrazol-5-yl)penams” (Pfizer Inc., priority 1974, dated 1976)
≈ marks a conversion by molar mass, not a printed value.

These molecules were tested on Streptococcus pyogenes (assay: In vitro MIC, conventional two-fold serial dilution technique in Brain-Heart Infusion broth, vs. Strep. pyogenes). Settings: Streptococcus pyogenes, read-out: MIC vs. Strep. pyogenes.
Type: cell-based
Description: The antibacterial penam compounds, prepared from the products of the instant process invention, show activity against a wide variety of gram-positive and gram-negative bacteria. […] The broth is inoculated with the bacterial culture, and with the test antibiotic, and then it is incubated overnight. On the next day, the test is read visually. The minimum inhibitory concentration (MIC) is the lowest concentration of antibiotic which prevents turbidity, i.e., which prevents growth of the microorganism. In vitro activities of several of the penam compounds of the invention are presented later in this specification.
In vitro antibacterial activities for a number of compounds prepared by the procedure of Example 8 are presented below.
In Table II, the minimum inhibitory concentrations (MIC's) of compounds wherein R is hydrogen, against a strain of Streptococcus pyogenes are reported.

| Compound | MIC |
| --- | --- |
| CC1(C)S[C@@H]2[C@H](NC(=O)C(N)c3cc(O)ccc3Br)C(=O)N2[C@H]1c1nnn[nH]1 (mixture of isomers) | < 0.1 µg/mL |
| CC1(C)S[C@@H]2[C@H](NC(=O)CSc3ccncc3)C(=O)N2[C@H]1c1nnn[nH]1 [2-(4-pyridylthio)acetyl] | < 0.1 µg/mL |
| CC1(C)S[C@@H]2[C@H](NC(=O)[C@H](N)c3ccc(O)cc3)C(=O)N2[C@H]1c1nnn[nH]1 [D-2-amino-2-(p-hydroxyphenyl)acetyl, 6-(D-2-amino-2-[p-hydroxyphenyl]acetamido)-2,2-dimethyl-3-(5-tetrazolyl)penam] | < 0.1 µg/mL |
| CC1(C)S[C@@H]2[C@H](NC(=O)Oc3ccccc3)C(=O)N2[C@H]1c1nnn[nH]1 [phenoxycarbonyl] | < 0.1 µg/mL |

Same assay, conditions: compounds wherein R is hydrogen; a strain of Streptococcus pyogenes; Brain-Heart Infusion broth, overnight; read-out: MIC vs. Strep. pyogenes

| MIC | Compound |
| --- | --- |
| < 0.1 µg/mL | CC1(C)S[C@@H]2[C@H](NC(=O)C(N)c3ccc(O)c(O)c3)C(=O)N2[C@H]1c1nnn[nH]1 (mixture of isomers) [DL-2-amino-2-(3,4-dihydroxyphenyl)acetyl] |
| < 0.1 µg/mL | CC1(C)S[C@@H]2[C@H](NC(=O)C(N)c3ccc(Cl)cc3)C(=O)N2[C@H]1c1nnn[nH]1 (mixture of isomers) [DL-2-amino-2-(p-chlorophenyl)acetyl] |
| < 0.1 µg/mL | CC1(C)S[C@@H]2[C@H](NC(=O)C=CC(N)=O)C(=O)N2[C@H]1c1nnn[nH]1 [3-(carbamoyl)acryloyl] |
| 0.1 µg/mL (≈ 0.264 µM) | CC1(C)S[C@@H]2[C@H](NC(=O)[C@H](N)c3cccs3)C(=O)N2[C@H]1c1nnn[nH]1 [D-2-amino-2-(2-thienyl)acetyl] |
| < 0.1 µg/mL | CC1(C)S[C@@H]2[C@H](NC(=O)[C@H](N)c3cccc(F)c3)C(=O)N2[C@H]1c1nnn[nH]1 [D-2-amino-2-(m-fluorophenyl)acetyl] |
| < 0.1 µg/mL | CC1(C)S[C@@H]2[C@H](NC(=O)[C@H](N)c3cccc(O)c3)C(=O)N2[C@H]1c1nnn[nH]1 [D-2-amino-2-(m-hydroxyphenyl)acetyl] |
| < 0.1 µg/mL | CC1(C)S[C@@H]2[C@H](NC(=O)[C@H](N)c3ccccc3)C(=O)N2[C@H]1c1nnn[nH]1 [D-2-amino-2-phenylacetyl] |
| 0.2 µg/mL (≈ 0.589 µM) | CC(C)[C@@H](N)C(=O)N[C@@H]1C(=O)N2[C@@H]1SC(C)(C)[C@@H]2c1nnn[nH]1 [D-2-amino-3-methylbutyryl] |
| 0.39 µg/mL (≈ 1.01 µM) | CC1(C)S[C@@H]2[C@H](NC(=O)[C@H](N)Cc3ccccc3)C(=O)N2[C@H]1c1nnn[nH]1 [D-2-amino-3-phenylpropionyl] |
| < 0.1 µg/mL | CC1(C)S[C@@H]2[C@H](NC(=O)[C@@H](N)c3ccc(O)cc3)C(=O)N2[C@H]1c1nnn[nH]1 [L-2-amino-2-(p-hydroxyphenyl)acetyl] |
| < 0.1 µg/mL | CC(=O)N[C@@H]1C(=O)N2[C@@H]1SC(C)(C)[C@@H]2c1nnn[nH]1 [acetyl] |
| < 0.1 µg/mL | CC1(C)S[C@@H]2[C@H](NC(=O)OCc3ccccc3)C(=O)N2[C@H]1c1nnn[nH]1 [benzyloxycarbonyl] |
| < 0.1 µg/mL | CCOC(=O)N[C@@H]1C(=O)N2[C@@H]1SC(C)(C)[C@@H]2c1nnn[nH]1 [ethoxycarbonyl] |
| < 0.1 µg/mL | CC1(C)S[C@@H]2[C@H](N)C(=O)N2[C@H]1c1nnn[nH]1 [hydrogen, 6-Amino-2,2-dimethyl-3-(5-tetrazolyl)penam] |

Second part, the molecule before the results:

| Compound | MIC |
| --- | --- |
| CC1(C)S[C@@H]2[C@H](NC(=O)[C@H](N)c3ccc(O)c(Cl)c3)C(=O)N2[C@H]1c1nnn[nH]1 | 0.1 µg/mL (≈ 0.236 µM) |
| CC1(C)S[C@@H]2[C@H](NC(=O)C3(N)CCCCC3)C(=O)N2[C@H]1c1nnn[nH]1 [1-aminocyclohexylcarbonyl] | 25 µg/mL (≈ 68.4 µM) |
| COc1cccc(OC)c1C(=O)N[C@@H]1C(=O)N2[C@@H]1SC(C)(C)[C@@H]2c1nnn[nH]1 [2,6-dimethoxybenzoyl] | < 0.2 µg/mL |
| CC1(C)S[C@@H]2[C@H](NC(=O)Cn3cnnn3)C(=O)N2[C@H]1c1nnn[nH]1 [2-(1-tetrazolyl)acetyl] | < 0.39 µg/mL |
| CCN=C(NCC)SCC(=O)N[C@@H]1C(=O)N2[C@@H]1SC(C)(C)[C@@H]2c1nnn[nH]1 [2-(N,N'-diethylamidinothio)acetyl] | < 0.1 µg/mL |
| CC1(C)S[C@@H]2[C@H](NC(=O)C(N=[N+]=[N-])c3ccccc3)C(=O)N2[C@H]1c1nnn[nH]1 (stereo partly shown) [2-azido-2-phenylacetyl] | < 0.1 µg/mL |
| CC1(C)S[C@@H]2[C@H](NC(=O)CBr)C(=O)N2[C@H]1c1nnn[nH]1 [2-bromoacetyl] | < 0.1 µg/mL |
| CC1(C)S[C@@H]2[C@H](NC(=O)CC#N)C(=O)N2[C@H]1c1nnn[nH]1 [2-cyanoacetyl] | 0.1 µg/mL (≈ 0.325 µM) |
| CC1(C)S[C@@H]2[C@H](NC(=O)COc3ccccc3)C(=O)N2[C@H]1c1nnn[nH]1 [2-phenoxyacetyl] | < 0.1 µg/mL |
| CC1(C)S[C@@H]2[C@H](NC(=O)Cc3ccccc3)C(=O)N2[C@H]1c1nnn[nH]1 [2-phenylacetyl, 6-(2-Phenylacetamido)-2,2-dimethyl-3-(5-tetrazolyl)penam] | < 0.1 µg/mL |
